BindingDB's records for doi:10.1016/0960-894X(95)00215-F (n/a, 1995)

Target: Phospholipase A2 group IIA
Assay: Concentration required for in vitro inhibitory activity against human type II phospholipase A2

IC50 [nM] | SMILES
676 | CCOC(=O)[C@@]1(Cc2ccccc2)S[C@H](F)C(C)(C)C1=O
4090 | CCOC(=O)[C@@]1(Cc2ccccc2)S[C@@H](F)C(C)(C)C1=O
